Assay results taken from PubChem BioAssay (NCI).
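Protocol summary: plate cells (96-well), add compound at 5 concentrations, incubate 48 h, interpolate endpoints linearly. At the GI50, growth is halved. The concentration for full growth arrest is given as TGI.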

How the values were obtained:
Assay in all cases: growth of human tumour cells (NCI), 48 h; in the data active = GI50 below about 0.43 µM; inactive = the rest
[1] = system: 786-0 renal
[2] = system: A498 renal
[3] = system: A549 NSCLC
[4] = system: ACHN renal
[5] = system: BT-549 breast
[6] = system: CAKI-1 renal
[7] = system: CCRF-CEM leukemia
[8] = system: COLO 205 colon
[9] = system: DU-145 prostate
[10] = system: EKVX NSCLC
[11] = system: HCC-2998 colon
[12] = system: HCT-116 colon
[13] = system: HCT-15 colon
[14] = system: HL-60(TB) leukemia
[15] = system: HOP-62 NSCLC
[16] = system: HOP-92 NSCLC
[17] = system: HS 578T breast
[18] = system: HT29 colon
[19] = system: IGROV1 ovarian
[20] = system: K-562 leukemia
[21] = system: KM12 colon
[22] = system: LOX IMVI melanoma
[23] = system: M14 melanoma
[24] = system: MALME-3M melanoma
[25] = system: MCF7 breast
[26] = system: MDA-MB-231 breast
[27] = system: MDA-MB-435
[28] = system: MDA-MB-468 breast
[29] = system: MOLT-4 leukemia
[30] = system: NCI-H226 lung
[31] = system: NCI-H23 lung
[32] = system: NCI-H460 lung
[33] = system: NCI-H522 lung
[34] = system: NCI/ADR-RES ovarian
[35] = system: OVCAR-3 ovarian
[36] = system: OVCAR-4 ovarian
[37] = system: OVCAR-5 ovarian
[38] = system: OVCAR-8 ovarian
[39] = system: PC-3 prostate
[40] = system: RPMI-8226 leukemia
[41] = system: RXF 393 renal
[42] = system: SF-268 CNS
[43] = system: SF-295 CNS
[44] = system: SF-539 CNS
[45] = system: SK-MEL-2 melanoma
[46] = system: SK-MEL-28 melanoma
[47] = system: SK-MEL-5 melanoma
[48] = system: SK-OV-3 ovarian
[49] = system: SN12C renal
[50] = system: SNB-19 CNS
[51] = system: SNB-75 CNS
[52] = system: SR leukemia
[53] = system: SW-620 colon
[54] = system: T-47D breast
[55] = system: TK-10 renal
[56] = system: U251 CNS
[57] = system: UACC-257 melanoma
[58] = system: UACC-62 melanoma
[59] = system: UO-31 renal

C/C(=N\N=C\c1ccc(Cl)c([N+](=O)[O-])c1)c1ccc2c(c1)Nc1ccccc1S2
94.4 µM: TGI [55]
65.3 µM: TGI [43]
53.6 µM: TGI [50]
39.3 µM: TGI [31]
93.5 µM: TGI [51]
41.1 µM: TGI [24]
30 µM: TGI [25]
41.9 µM: TGI [30]
91.8 µM: TGI [5]
62.3 µM: TGI [17]
61 µM: TGI [16]
52.4 µM: TGI [56]
59 µM: TGI [41]
19.4 µM: TGI [11]
> 100 µM: TGI [1] | TGI [2] | TGI [3] | TGI [4] | TGI [6] | TGI [7] | TGI [8] | TGI [9] | TGI [10] | TGI [12] | TGI [13] | TGI [14] | TGI [18] | TGI [19] | TGI [20] | TGI [21] | TGI [22] | TGI [23] | TGI [26] | TGI [27] | TGI [29] | TGI [33] | TGI [36] | TGI [37] | TGI [38] | TGI [40] | TGI [42] | TGI [45] | TGI [46] | TGI [47] | TGI [48] | TGI [49] | TGI [52] | TGI [53] | TGI [54] | TGI [57] | TGI [58] | TGI [59]
20 µM: TGI [32]
5.66 µM: TGI [28]
22.5 µM: TGI [35]
74.5 µM: TGI [44]
23.3 µM: TGI [39]
53.1 µM: TGI [34]
inactive: GI50 [1] 26.5 µM | GI50 [2] 31 µM | GI50 [3] 12.2 µM | GI50 [4] 14.4 µM | GI50 [5] 17.1 µM | GI50 [6] 13.7 µM | GI50 [7] 4.12 µM | GI50 [8] 36.1 µM | GI50 [9] 3.76 µM | GI50 [10] 5.85 µM | GI50 [11] 5.08 µM | GI50 [12] 4.44 µM | GI50 [13] 9.1 µM | GI50 [14] 16.9 µM | GI50 [15] 8.03 µM | GI50 [16] 12.2 µM | GI50 [17] 7.56 µM | GI50 [18] 4.26 µM | GI50 [19] 17.7 µM | GI50 [20] 5.37 µM | GI50 [21] 9.7 µM | GI50 [22] 24.8 µM | GI50 [23] 72.4 µM | GI50 [24] 10.9 µM | GI50 [25] 3.19 µM | GI50 [26] 14.3 µM | GI50 [27] 14.4 µM | GI50 [28] 1.58 µM | GI50 [29] 9.98 µM | GI50 [30] 8.48 µM | GI50 [31] 6.83 µM | GI50 [32] 3.38 µM | GI50 [33] 11.6 µM | GI50 [34] 5.22 µM | GI50 [35] 4.46 µM | GI50 [36] 4.03 µM | GI50 [37] > 100 µM | GI50 [38] 6.09 µM | GI50 [39] 3 µM | GI50 [40] 4.27 µM | GI50 [41] 15.3 µM | GI50 [42] 23.8 µM | GI50 [43] 7.73 µM | GI50 [44] 18.5 µM | GI50 [45] 43.2 µM | GI50 [46] 17.8 µM | GI50 [47] 7.91 µM | GI50 [48] 37 µM | GI50 [49] 44.3 µM | GI50 [50] 15.8 µM | GI50 [51] 15.7 µM | GI50 [52] 3.49 µM | GI50 [53] 3.56 µM | GI50 [54] 6.56 µM | GI50 [55] 18 µM | GI50 [56] 7.43 µM | GI50 [57] 9.51 µM | GI50 [58] 15.1 µM | GI50 [59] 78.2 µM
41.3 µM: TGI [15]
